The assay deals with T1, SMARCA2 (Homo sapiens, UniProt P51531).
T1 construct: endogenous in cells; host or cells: HT1080 (CRISPR HiBiT knock-in clone, generated in house)
Description: SMARCA2 HiBiT degradation assay (cellular). Format: cell-based. The settings on record: table head names A549; for DC50: 6 h incubation, HiBiT-tagged SMARCA2, luminescence read-out, read-out: HiBit A549 SMARCA2 IP (nM) 6 h; for Emax: A549, 6 h incubation, Emax = amount of residual protein remaining in the cell following compound treatment. For orientation: With HiBiT, luminescence reflects the tagged protein that the partner subunit can reach.

These results are taken from patent US20230024096A1, “BIFUNCTIONAL COMPOUNDS FOR THE TREATMENT OF CANCER” (Hoffmann-La Roche Inc., priority 2019, published 2023).

T1 sequence (P51531 whole entry): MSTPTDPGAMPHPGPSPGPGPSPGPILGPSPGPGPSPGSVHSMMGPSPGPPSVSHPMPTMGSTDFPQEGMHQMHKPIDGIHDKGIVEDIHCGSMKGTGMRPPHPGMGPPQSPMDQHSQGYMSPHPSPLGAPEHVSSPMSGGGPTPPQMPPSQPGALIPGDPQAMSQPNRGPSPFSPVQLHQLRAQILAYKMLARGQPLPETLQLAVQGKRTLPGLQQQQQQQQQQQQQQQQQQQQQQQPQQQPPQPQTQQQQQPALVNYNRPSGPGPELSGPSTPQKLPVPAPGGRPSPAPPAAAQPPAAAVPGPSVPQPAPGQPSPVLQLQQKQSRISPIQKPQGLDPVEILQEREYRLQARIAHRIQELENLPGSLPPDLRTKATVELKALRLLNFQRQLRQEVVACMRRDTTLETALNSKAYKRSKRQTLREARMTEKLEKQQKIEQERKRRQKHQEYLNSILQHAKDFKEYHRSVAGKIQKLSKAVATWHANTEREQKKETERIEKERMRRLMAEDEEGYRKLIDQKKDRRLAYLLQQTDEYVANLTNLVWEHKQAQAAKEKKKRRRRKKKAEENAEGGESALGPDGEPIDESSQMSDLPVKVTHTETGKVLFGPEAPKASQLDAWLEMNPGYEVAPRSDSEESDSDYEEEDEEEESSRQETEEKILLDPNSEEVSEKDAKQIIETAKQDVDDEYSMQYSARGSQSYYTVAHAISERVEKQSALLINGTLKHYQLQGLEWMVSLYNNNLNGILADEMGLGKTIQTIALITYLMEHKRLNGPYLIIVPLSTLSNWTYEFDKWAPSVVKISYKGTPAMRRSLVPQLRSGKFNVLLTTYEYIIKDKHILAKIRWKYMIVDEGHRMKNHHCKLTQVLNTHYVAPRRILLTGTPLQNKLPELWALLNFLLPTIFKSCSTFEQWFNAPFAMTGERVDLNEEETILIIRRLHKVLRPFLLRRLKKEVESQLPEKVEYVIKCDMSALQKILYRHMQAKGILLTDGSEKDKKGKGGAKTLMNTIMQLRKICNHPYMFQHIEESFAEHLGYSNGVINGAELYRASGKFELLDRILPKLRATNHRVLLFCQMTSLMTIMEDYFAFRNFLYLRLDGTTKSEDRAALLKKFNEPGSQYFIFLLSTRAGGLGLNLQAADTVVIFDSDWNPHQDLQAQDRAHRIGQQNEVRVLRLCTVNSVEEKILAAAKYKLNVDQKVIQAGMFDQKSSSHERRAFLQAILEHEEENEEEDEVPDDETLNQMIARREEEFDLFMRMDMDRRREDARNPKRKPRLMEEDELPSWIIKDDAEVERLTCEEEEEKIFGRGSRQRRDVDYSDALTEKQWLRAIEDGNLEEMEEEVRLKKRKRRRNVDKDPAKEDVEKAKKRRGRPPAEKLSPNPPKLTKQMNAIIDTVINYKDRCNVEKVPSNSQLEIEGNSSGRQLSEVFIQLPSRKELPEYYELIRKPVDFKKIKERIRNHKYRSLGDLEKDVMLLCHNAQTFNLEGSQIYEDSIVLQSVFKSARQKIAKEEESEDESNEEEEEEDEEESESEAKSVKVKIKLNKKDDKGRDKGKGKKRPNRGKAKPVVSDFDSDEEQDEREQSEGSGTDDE

In general, Emax refers to the greatest response seen or fitted, relative to the assay's reference. On to `CC(Nc1cccc2c1C(=O)N(C1CCC(=O)NC1=O)C2=O)c1cn(CCCCCCCCCN2CCN(c3ccc(N4CCCC(Oc5cc(-c6ccccc6O)nnc5N)C4)cc3)CC2)nn1` (stereo not drawn) [Example 89, 4-[1-[1-[9-[4-[4-[3-[3-amino-6-(2-hydroxyphenyl)pyridazin-4-yl]oxy-1-piperidyl]phenyl]piperazin-1-yl]nonyl]triazol-4-yl]ethylamino]-2-(2,6-dioxo-3-piperidyl)isoindoline-1,3-dione], for which the DC50 worked out at 55 nM and the Emax stood at 30%.
Turning to `CC(Oc1cccc2c1C(=O)N(C1CCC(=O)NC1=O)C2=O)c1cn(CCC(=O)N2CCN(CCCN3CCN(c4ccc(N5CCC[C@H](Oc6cc(-c7ccccc7O)nnc6N)C5)cc4)CC3)CC2)nn1` (mixture of isomers) [Example 204, 2-(2,6-dioxo-3-piperidyl)-4-[1-[1-[3-oxo-3-[4-[3-[4-[4-[rac-(3S)-3-[3-amino-6-(2-hydroxyphenyl)pyridazin-4-yl]oxy-1-piperidyl]phenyl]piperazin-1-yl]propyl]piperazin-1-yl]propyl]triazol-4-yl]ethoxy]isoindoline-1,3-dione], the DC50 worked out at 907 nM and the Emax worked out at 39%.
The matching figures for `Nc1nnc(-c2ccccc2O)cc1OCC(CNC(=O)CN1CCC(c2ccc(OC3CCC(=O)NC3=O)cc2)CC1)c1ccccc1` (racemic) [Example 98, N-[3-[3-amino-6-(2-hydroxyphenyl)pyridazin-4-yl]oxy-2-phenyl-propyl]-2-[4-[4-[(2,6-dioxo-3-piperidyl)oxy]phenyl]-1-piperidyl]acetamide;2,2,2-trifluoroacetic acid (racemic mixture of diastereomers)]: 182 nM and 63%.
In the case of `Nc1nnc(-c2ccccc2O)cc1N1CC(Oc2ccc(C(=O)N3CCN(C(=O)C4CCN(c5ccc6c(c5)C(=O)N(C5CCC(=O)NC5=O)C6=O)CC4)CC3)c(Cl)c2)C1` (racemic) [Example 125, rac-5-[4-[4-[4-[1-[3-amino-6-(2-hydroxyphenyl)pyridazin-4-yl]azetidin-3-yl]oxy-2-chloro-benzoyl]piperazine-1-carbonyl]-1-piperidyl]-2-(2,6-dioxo-3-piperidyl)isoindoline-1,3-dione], the DC50 was determined as 30 nM and the Emax was 42%.
For `CN(c1cccc2c1C(=O)N(C1CCC(=O)NC1=O)C2=O)C1CCN(C(=O)CCC(=O)N2CCN(CCOc3cccc(N4C5CCC4CN(c4cc(-c6ccccc6O)nnc4N)C5)c3)CC2)CC1` (racemic) [Example 21, rac-4-[[1-[4-[4-[2-[3-[3-[3-amino-6-(2-hydroxyphenyl)pyridazin-4-yl]-3,8-diazabicyclo[3.2.1]octan-8-yl]phenoxy]ethyl]piperazin-1-yl]-4-oxo-butanoyl]-4-piperidyl]-methyl-amino]-2-(2,6-dioxo-3-piperidyl)isoindoline-1,3-dione], the DC50 was 118 nM and the Emax was 29%.
As for `Nc1nnc(-c2ccccc2O)cc1N1CC2CCC(C1)N2c1cccc(OCCN2CCN(C(=O)CC3CCN(c4cccc5c4C(=O)N(C4CCC(=O)NC4=O)C5=O)CC3)CC2)c1` (racemic) [Example 15, rac-4-[4-[2-[4-[2-[3-[3-[3-amino-6-(2-hydroxyphenyl)pyridazin-4-yl]-3,8-diazabicyclo[3.2.1]octan-8-yl]phenoxy]ethyl]piperazin-1-yl]-2-oxo-ethyl]-1-piperidyl]-2-(2,6-dioxo-3-piperidyl)isoindoline-1,3-dione], the DC50 is 35 nM and the Emax is 52%.
On the same counts, the results for `Nc1nnc(-c2ccccc2O)cc1O[C@@H]1CCCN(c2ccc(N3CCN(CCCCCCCCCn4cc(CNc5cccc6c5C(=O)N(C5CCC(=O)NC5=O)C6=O)nn4)CC3)cc2)C1` (stereo partly drawn) [Example 63, 4-[[1-[9-[4-[4-[(3R)-3-[3-amino-6-(2-hydroxyphenyl)pyridazin-4-yl]oxy-1-piperidyl]phenyl]piperazin-1-yl]nonyl]triazol-4-yl]methylamino]-2-(2,6-dioxo-3-piperidyl)isoindoline-1,3-dione] are 59 nM and 27%.
On the same counts, the results for `Nc1nnc(-c2ccccc2O)cc1OC1CCCN(c2ccc(N3CCN(CCCCCCCCCc4ccc(CNc5cccc6c5C(=O)N(C5CCC(=O)NC5=O)C6=O)nc4)CC3)cc2)C1` (stereo not drawn) [Example 136, 4-[[5-[9-[4-[4-[3-[3-amino-6-(2-hydroxyphenyl)pyridazin-4-yl]oxy-1-piperidyl]phenyl]piperazin-1-yl]nonyl]-2-pyridyl]methylamino]-2-(2,6-dioxo-3-piperidyl)isoindoline-1,3-dione] are 495 nM and 45%.
The matching figures for `Nc1nnc(-c2ccccc2O)cc1N1CCN(c2ccccc2)C(C(=O)NC2CCN(C(=O)CC3CCN(c4ccc5c(c4)C(=O)N(C4CCC(=O)NC4=O)C5=O)CC3)CC2)C1` (stereo not drawn) [Example 53, 4-[3-amino-6-(2-hydroxyphenyl)pyridazin-4-yl]-N-[1-[2-[1-[2-(2,6-dioxo-3-piperidyl)-1,3-dioxo-isoindolin-5-yl]-4-piperidyl]acetyl]-4-piperidyl]-1-phenyl-piperazine-2-carboxamide]: 122 nM and 46%.
For the molecule `CC(Nc1cccc2c1C(=O)N(C1CCC(=O)NC1=O)C2=O)c1cn(CCCCCCCCCN2CCN(c3ccc(N4CCC[C@H](Oc5cc(-c6ccccc6O)nnc5N)C4)cc3)CC2)nn1` (mixture of isomers) [Example 201, 2-(2,6-dioxo-3-piperidyl)-4-[1-[1-[9-[4-[4-[rac-(3S)-3-[3-amino-6-(2-hydroxyphenyl)pyridazin-4-yl]oxy-1-piperidyl]phenyl]piperazin-1-yl]nonyl]triazol-4-yl]ethylamino]isoindoline-1,3-dione], the DC50 was 79 nM and the Emax is 37%.
As to `Nc1nnc(-c2ccccc2O)cc1N1CCN(c2cccc(CN3CCN(C(=O)CC4CCN(c5ccc6c(c5)C(=O)N(C5CCC(=O)NC5=O)C6=O)CC4)CC3)c2)C2(CC2)C1` (stereo not drawn) [Example 130, 5-(4-(2-(4-(3-(7-(3-amino-6-(2-hydroxyphenyl)pyridazin-4-yl)-4,7-diazaspiro[2.5]octan-4-yl)benzyl)piperazin-1-yl)-2-oxoethyl)piperidin-1-yl)-2-(2,6-dioxopiperidin-3-yl)isoindoline-1,3-dione], the DC50 came out at 12 nM and the Emax was 43%.
As to `Nc1nnc(-c2ccccc2O)cc1N1CCC(CNC(=O)CNc2cccc3c2C(=O)N(C2CCC(=O)NC2=O)C3=O)(c2ccccc2)CC1` (stereo not drawn) [Example 76, N-((1-(3-amino-6-(2-hydroxyphenyl)pyridazin-4-yl)-4-phenylpiperidin-4-yl)methyl)-2-((2-(2,6-dioxopiperidin-3-yl)-1,3-dioxoisoindolin-4-yl)amino)acetamide], the DC50 was determined as 221 nM and the Emax came out at 57%.
Consider `Nc1nnc(-c2ccccc2O)cc1N1CCC(C(=O)N2CC3(CN(C(=O)C4CCN(c5ccc6c(c5)C(=O)N(C5CCC(=O)NC5=O)C6=O)CC4)C3)C2)(c2ccccc2)CC1` (stereo not drawn) [Example 121, 5-(4-(6-(1-(3-amino-6-(2-hydroxyphenyl)pyridazin-4-yl)-4-phenylpiperidine-4-carbonyl)-2,6-diazaspiro[3.3]heptane-2-carbonyl)piperidin-1-yl)-2-(2,6-dioxopiperidin-3-yl)isoindoline-1,3-dione], for which the DC50 came out at 47 nM and the Emax was 26%.
On to `Cc1c(C(=O)N2CCN(C(=O)C3CCN(c4ccc5c(c4)C(=O)N(C4CCC(=O)NC4=O)C5=O)CC3)CC2)cccc1N1C2CCC1CN(c1cc(-c3ccccc3O)nnc1N)C2` (racemic) [Example 116, rac-5-[4-[4-[3-[3-[3-amino-6-(2-hydroxyphenyl)pyridazin-4-yl]-3,8-diazabicyclo[3.2.1]octan-8-yl]-2-methyl-benzoyl]piperazine-1-carbonyl]-1-piperidyl]-2-(2,6-dioxo-3-piperidyl)isoindoline-1,3-dione], for which the DC50 was found to be 58 nM and the Emax was found to be 32%.
`Nc1nnc(-c2ccccc2O)cc1N1CC2CCC(C1)N2c1cccc(OCCN2CCN(C(=O)CN3CCC(c4ccc(OC5CCC(=O)NC5=O)cc4)CC3)CC2)c1` (racemic) [Example 43, rac-3-[4-[1-[2-[4-[2-[3-[3-[3-amino-6-(2-hydroxyphenyl)pyridazin-4-yl]-3,8-diazabicyclo[3.2.1]octan-8-yl]phenoxy]ethyl]piperazin-1-yl]-2-oxo-ethyl]-4-piperidyl]phenoxy]piperidine-2,6-dione]: the DC50 is 32 nM and the Emax amounted to 31%.
For `Nc1nnc(-c2ccccc2O)cc1N1CC(Oc2cccc(N3CCN(C(=O)CCC4CCN(c5ccc6c(c5)C(=O)N(C5CCC(=O)NC5=O)C6=O)CC4)CC3)c2)C1` (racemic) [Example 153, rac-5-[4-[3-[4-[3-[1-[3-amino-6-(2-hydroxyphenyl)pyridazin-4-yl]azetidin-3-yl]oxyphenyl]piperazin-1-yl]-3-oxo-propyl]-1-piperidyl]-2-(2,6-dioxo-3-piperidyl)isoindoline-1,3-dione], the DC50 is 19 nM and the Emax came out at 21%.
With `Nc1nnc(-c2ccccc2O)cc1N1CCC(C(=O)N2CC3(CCN(C(=O)CN4CCC(c5ccc(NC6CCC(=O)NC6=O)cc5)CC4)CC3)C2)(c2ccccc2)CC1` (stereo not drawn) [Example 165, 3-((4-(1-(2-(2-(1-(3-amino-6-(2-hydroxyphenyl)pyridazin-4-yl)-4-phenylpiperidine-4-carbonyl)-2,7-diazaspiro[3.5]nonan-7-yl)-2-oxoethyl)piperidin-4-yl)phenyl)amino)piperidine-2,6-dione], the DC50 came out at 28 nM and the Emax was 38%.
Take `Nc1nnc(-c2ccccc2O)cc1N1CC(Oc2ccc(C(=O)N3CCN(C(=O)CCCCCCCCCNc4cccc5c4C(=O)N(C4CCC(=O)NC4=O)C5=O)CC3)cc2)C1` (stereo not drawn) [Example 150, 4-[[10-[4-[4-[1-[3-amino-6-(2-hydroxyphenyl)pyridazin-4-yl]azetidin-3-yl]oxybenzoyl]piperazin-1-yl]-10-oxo-decyl]amino]-2-(2,6-dioxo-3-piperidyl)isoindoline-1,3-dione]: the DC50 came to 553 nM and the maximum response (Emax) was found to be 65%.
